The record followed here is paper PMC6199492, “Comprehensive Characterization of Toxoplasma Acyl Coenzyme A-Binding Protein TgACBP2 and Its Critical Role in Parasite Cardiolipin Metabolism” (mBio, 2018).

In this assay the target is T1, TgACBP2 (Toxoplasma gondii, UniProt A0A7J6JZP9).
T1 construct: gene TGRH88_042420; recombinant TgACBP2 with C-terminal GST tag (tag kept), expressed in E. coli and purified; native HA-tagged protein ~36 kDa
T1 sequence (A0A7J6JZP9 1-311): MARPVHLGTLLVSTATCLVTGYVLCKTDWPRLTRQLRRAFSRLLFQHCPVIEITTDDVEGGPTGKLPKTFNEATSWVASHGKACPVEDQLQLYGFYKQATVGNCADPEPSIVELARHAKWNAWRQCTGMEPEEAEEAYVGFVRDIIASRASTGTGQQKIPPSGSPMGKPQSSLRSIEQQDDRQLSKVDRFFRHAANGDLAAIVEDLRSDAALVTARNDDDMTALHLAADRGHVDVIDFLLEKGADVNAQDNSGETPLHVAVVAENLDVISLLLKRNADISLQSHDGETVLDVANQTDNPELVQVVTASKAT
Put plainly: fluorescence increase of NBD ligand upon binding, microplate reader. The conditions noted are these: labelled compound; 0.1 μM TgACBP2-GST, 0-0.25 μM ligand, PBS, room temperature, 5 min; ex 460 nm, em 540 nm; read-out: K (binding constant).

As to NBD-C16:0-CoA, the Kd is 136 nM.
